{
  "source": "paper PMC11768629",
  "about": "“Potential Interaction of Pinocembrin with Drug Transporters and Hepatic Drug-Metabolizing Enzymes” (Pharmaceuticals, 2025)",
  "key": {"[1]": {"system": "CYP2C8", "parameters": "method as in PMID 34069400, doi:10.5562/cca3652, PMID 35721953", "conditions": "cited from earlier work"}, "[2]": {"target": "T1, hMATE1 (Homo sapiens, UniProt Q96FL8)", "T1 construct": "host or cells: CHO-K1", "T1 sequence (Q96FL8 whole entry)": "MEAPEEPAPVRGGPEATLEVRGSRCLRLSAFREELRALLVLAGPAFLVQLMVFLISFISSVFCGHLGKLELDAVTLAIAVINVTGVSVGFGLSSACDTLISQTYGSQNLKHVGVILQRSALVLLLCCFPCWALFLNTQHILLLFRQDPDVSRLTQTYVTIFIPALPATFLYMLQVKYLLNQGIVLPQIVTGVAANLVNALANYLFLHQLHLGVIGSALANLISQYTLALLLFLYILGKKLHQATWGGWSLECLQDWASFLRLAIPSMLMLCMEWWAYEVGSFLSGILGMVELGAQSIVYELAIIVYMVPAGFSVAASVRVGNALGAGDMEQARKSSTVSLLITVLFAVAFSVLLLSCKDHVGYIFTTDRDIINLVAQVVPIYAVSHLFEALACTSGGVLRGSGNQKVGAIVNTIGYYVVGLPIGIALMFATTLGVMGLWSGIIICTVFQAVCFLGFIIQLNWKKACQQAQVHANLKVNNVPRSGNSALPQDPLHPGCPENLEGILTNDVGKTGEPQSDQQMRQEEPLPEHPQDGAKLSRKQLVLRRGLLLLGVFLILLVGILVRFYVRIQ", "experiment": "Cis-inhibition assay, 3H-MPP+ uptake in hMATE1-CHO-K1 cells", "assay_type": "cell-based", "conditions": "pinocembrin, pH 8.5", "description": "Next, the effects of pinocembrin on the transport function of renal drug transporters, including hOAT1, hOAT3, hOCT1, hOCT2, hMATE1, and hMATE2, were determined.\nA cell monolayer comprising hOAT1-MDCK, hOAT3-MDCK, hOCT1-CHO-K1, hOCT2-CHO-K1, hMATE1-CHO-K1, hMATE2-CHO-K1, and mock cells were utilized for the uptake experiments. The cells were washed three times with a buffer containing (in mM) 140 NaCl, 5 KCl, 0.4 MgSO4, 0.5 MgCl2, 1 CaCl2, 0.3 Na2HPO4, 0.4 KH2PO4, 6 D-glucose, and 4 NaHCO3 at pH 7.4 and incubated at 37 °C for 15 min. After incubation, the hOAT1-MDCK and hOAT3-MDCK cells were incubated for 10 min with ^3H-PAH and ^3H-estrone sulfate, a substrate of hOAT1 and hOAT3, respectively. The hOCT1-CHO-K1 and hOCT2-CHO-K1 cells were incubated with ^3H-MPP^+, a substrate of OCT1 and OCT2, for five minutes. The functions of MATE1 and MATE2 were determined by incubating the hMATE1-CHO-K1 and hMATE2-CHO-K1 cells with a buffer containing ^3H-MPP^+, a substrate of MATE1 and MATE2, at pH 8.5 for five minutes. The cells were washed three times with an ice-cold buffer to stop the transport function. The cells were lyzed with 0.4 N NaOH for at least four hours. The samples were collected and transferred to vials containing a liquid scintillation cocktail to measure radioactivity by a β-counter (Packard BioScience, Wellesley, MA, USA). […]"}, "[3]": {"target": "T2, hOAT3 (Homo sapiens, UniProt Q8TCC7)", "T2 construct": "host or cells: MDCK", "T2 sequence (Q8TCC7 1-542)": "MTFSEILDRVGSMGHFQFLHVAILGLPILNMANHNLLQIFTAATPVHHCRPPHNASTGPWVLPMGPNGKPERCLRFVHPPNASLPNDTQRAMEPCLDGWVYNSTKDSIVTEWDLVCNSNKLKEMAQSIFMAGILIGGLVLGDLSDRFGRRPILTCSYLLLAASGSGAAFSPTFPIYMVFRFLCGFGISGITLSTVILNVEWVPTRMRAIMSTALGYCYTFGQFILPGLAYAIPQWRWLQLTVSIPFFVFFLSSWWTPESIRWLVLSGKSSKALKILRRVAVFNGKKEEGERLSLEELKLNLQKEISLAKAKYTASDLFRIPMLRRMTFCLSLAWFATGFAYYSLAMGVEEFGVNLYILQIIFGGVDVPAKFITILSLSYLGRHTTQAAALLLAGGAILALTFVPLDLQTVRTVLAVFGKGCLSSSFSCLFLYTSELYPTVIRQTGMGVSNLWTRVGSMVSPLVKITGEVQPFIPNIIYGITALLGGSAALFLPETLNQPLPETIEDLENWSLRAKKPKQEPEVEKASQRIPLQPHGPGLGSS", "experiment": "hOAT3-mediated 6-CF uptake in hOAT3-MDCK cells (inhibitory potency and kinetics)", "assay_type": "cell-based", "description": "To determine the inhibitory potency of pinocembrin on the hOAT1 and hOAT3 function, the IC50 of pinocembrin on the hOAT1- and hOAT3-mediated uptake of 6-carboxyfluorescein (6-CF), a fluorescent substrate of hOAT1 and hOAT3, was determined. […] Next, the inhibitory mechanism of pinocembrin was determined using a kinetic study.\nThe hOAT1-MDCK and hOAT3-MDCK cell monolayers were incubated at 37 °C with an uptake buffer containing 6-CF (10 µM), a fluorescent substrate of hOAT1 and hOAT3 [12], and pinocembrin (0–50 µM) for 10 min. Uptake was terminated by removing the uptake solution and washing four times with a cold buffer. The cell monolayers were lysed with 0.4 N NaOH for 30 min. The samples were transferred to 96-black well plates to measure the fluorescence intensity using a fluorescent plate reader (EnVision XCite 2105 Multimode Plate Reader, Packard BioScience, Wellesley, MA, USA) at excitation and emission wavelengths of 490 and 510, respectively. The IC50 of pinocembrin on hOAT1- and hOAT3-mediated 6-CF uptake was calculated in GraphPad Prism using sigmoidal concentration–response analysis using the equation Y = 100/(IC50/X)^HillSlope (X is the concentration, while Y is the normalized response). In addition, the estimated inhibitory constant (Ki) was calculated using the Cheng–Prusoff equation.\nThe hOAT1-MDCK and hOAT3-MDCK cell monolayers were incubated with 6-CF at increasing concentrations (0 to 100 µM) and in the absence or presence of 5 µM pinocembrin for 10 min. The kinetic parameters of 6-CF transport by hOAT1 and hOAT3 in the presence of pinocembrin were determined using nonlinear regression analysis to fit the Michaelis–Menten kinetic equation: V=Vmax[S]/Km+[S] where V is the rate of 6-CF transport, Vmax is the maximum rate of 6-CF transport, Km is the 6-CF concentration that results in half the maximum transport (Michaelis–Menten constant), and [S] is the concentration of 6-CF in the transport reaction."}, "[4]": {"system": "CYP2D6", "parameters": "method as in PMID 34069400, doi:10.5562/cca3652, PMID 26626242", "conditions": "cited from earlier work"}},
  "data": [
    {"smiles": "O=C1C[C@@H](c2ccccc2)Oc2cc(O)cc(O)c21", "note": "[pinocembrin]", "values": [
      {"measurement": "effect on the activity of CYP2C8", "setting": "[1]", "result": "does not affect"},
      {"measurement": "hMATE1-mediated uptake of 3H-MPP+", "setting": "[2]", "result": "did not alter"},
      {"measurement": "Vmax of hOAT3-mediated 6-CF uptake, With Pinocembrin", "setting": "[3]; 5 μM pinocembrin, 6-CF up to 100 μM, hOAT3-MDCK cells", "result": "11.32 ± 2.33", "unit": "nmol/min/cm^2"},
      {"measurement": "IC50", "setting": "[3]; hOAT3-MDCK cells, 6-CF 10 µM, mean ± S.D., three experiments", "result": "2380 ± 980", "unit": "nM"},
      {"measurement": "Ki", "setting": "[3]; hOAT3-MDCK cells, estimated with the Cheng–Prusoff equation", "result": "1300 ± 240", "unit": "nM"},
      {"measurement": "inhibitory mechanism on hOAT3 transport function", "setting": "[3]; kinetic study, 5 μM pinocembrin: Km increased, Vmax unchanged", "result": "competitively"},
      {"measurement": "effect on the activity of CYP2D6", "setting": "[4]", "result": "inhibits the activities"}
    ]}
  ]
}
